This note sets out measurements from US20020132220A1, “Use of selectin antagonists in organ preservation solutions” (priority 2000, published 2002).

The subject of assay [1] is rat kidney. As to the kind of experiment: Syngeneic rat kidney transplantation (Lewis to Lewis) after flushing the kidney with perfusate; ischemia/reperfusion injury. The note with it: for Blood Urea Nitrogen / Serum Creatinine / GFR: syngeneic transplantation; for GFR: 4° C., 30 min on ice. Type of assay: in vivo. The protocol:
(§1) To determine the effects of bimosiamose on the ischemia/reperfusion component of transplant injury, the following experiment was performed. To test bimosiamose solutions, a rat kidney is flushed with a solution containing bimosiamose (compound 1, 1,6-bis-(3-(3-carbomethylphenyl)-4-(2-α-D-mannopyranosyloxy)phenyl)hexane disodium salt, prepared according to the procedure described in U.S. Pat. No. 5,919,768) upon harvest from a donor and prior to placement into a recipient, to determine whether or not there is any protective effect. Rats for both examples were supplied by Harlan. A syngeneic transplantation model (Lewis rat to Lewis rat) was utilized. In this model, the immune system mediated rejection component is not relevant since the donor and recipient are of similar genetic background (syngeneic). In this experiment, test bimosiamose solutions were made up in a concentration of 100 mg/ml in phosphate-buffered saline solution, at a pH of 7.4. Test amounts of bimoisamose solution (as indicated in column 1 of Table 1) were added to Collins solution, to form the test perfusate solution. The Collins solution was purchased from Baxter, and contained 740 mg dibasic potassium phosphate, 205 mg monobasic potassium phosphate, 112 mg potassium chloride and 84 mg sodium bicarbonate per 100 mL solution, at pH 7.4. The test perfusate solution was cooled to a temperature of 4° C., and then 2 ml was utilized to perfuse the organ, which was afterwards maintained on ice for thirty minutes. Perfusion pressure was at or below physiologic pressure during the perfusion.
(§2) Following the 30 minute cold-temperature perfusion, transplantation was performed by transplanting a graft organ using end-to-end anastomosis of the renal artery, vein and ureter, with a simultaneous contralateral nephrectomy, wherein when the graft fails, the recipient does shortly thereafter.
This injury is the result of 30 minutes of cold ischemia with an additional 30 minutes of warm ischemia during the surgical re-anastomosis. N in the first column of Table 1 indicates sample size, i.e.—when N=6, six animals were tested. […] These observations are supported by reductions in serum creatinine and blood urea nitrogen (see Table 1). Therefore, Table 1 illustrates a statistically significant improvements associated with bimosiamose treatment.

The subject of assay [2] is rat kidney. As to the kind of experiment: Allogeneic rat kidney transplantation (Lewis to ACI) after flushing the kidney with perfusate; graft/recipient survival. Type of assay: in vivo, Lewis rats to ACI rats. The note with it: for Survival: allogeneic transplantation, no immunosuppression. The protocol:
as §1, §2
The procedure described in Example 1 was also utilized to determine what effect bimosiamose solutions would have when transplantation between donor and recipient were not matched for histocompatibility (test rats are allogenic). […]

[3] abbreviates: kidney perfused with 0.5 mg/ml in Collins solution.
Setting [4] is: kidney perfused with 1.0 mg/ml in Collins solution.

Counter-ions that a name gives are not always drawn.

Consider `O=C(O)Cc1cccc(-c2cc(CCCCCCc3ccc(OC4OC(CO)C(O)C(O)C4O)c(-c4cccc(CC(=O)O)c4)c3)ccc2OC2OC(CO)C(O)C(O)C2O)c1` [Cmpd. 1, 1,6-bis-(3-(3-carbomethylphenyl)-4-(2-α-D-mannopyranosyloxy)phenyl)hexane disodium salt], for which, in the assay with rat kidney [1] (flushing the organ with a solution containing 1 mg/2 ml or 2 mg/2 ml), the “Renal function (in words)” value was “preservation of renal function”. In addition, in the assay on rat kidney [1] (setting [3]), the “Blood Urea Nitrogen” value was 49.8 ± 24.2 mg/dL, the “Serum Creatinine” value is recorded as 0.62 ± 0.23 mg/dL and the GFR amounted to 0.70 ± 0.37 mL/min. In the assay on rat kidney [1] (setting [4]), the “Blood Urea Nitrogen” value came out at 32.0 ± 4.6 mg/dL, the “Serum Creatinine” value was 0.48 ± 0.08 mg/dL and the GFR is 0.91 ± 0.08 mL/min. The same compound came in with a Survival with rat kidney [2] (kidney flushed with 0.5 mg/ml) of 18.50 ± 6.45 days. This compound showed a Survival in the assay on rat kidney [2] (kidney flushed with 1.0 mg/ml) of 30.25 ± 13.25 days. Also, the “Graft function/survival (in words)” value in the assay on rat kidney [2] (renal allografts flushed with solution, without standard immunosuppressive agents) was “dose-related preservation of graft function/survival”.
